In patent US20200306313A1, “METHODS AND COMPOSITIONS FOR NON-CYTOTOXIC STEM CELL TRANSPLANTATION” (THE BOARD OF REGENTS OF THE UNIVERSITY OF TEXAS SYSTEM, priority 2014, published 2020):

Assays:
MitoPark™ mice = experiment: Spontaneous locomotor activity of MitoPark mice; type: in vivo
From the text: Vertical movements declined earlier and faster than horizontal movements (data not shown), modeling the early occurrence of axial postural instability in PD. […] The MitoPark™ mice began to lose weight from ˜20 weeks and died at 29-33 weeks of age, at which point the majority of substantia nigra DA neurons had been lost.

[1] = without irradiation and chemotherapy; cited from earlier work
[2] = tested on: substantia nigra microglia; experiment: Recruitment of bone marrow-derived microglia to substantia nigra after MPTP; type: in vivo; details: MSP-GFP mice nine weeks after the last injection of MPTP
Description: (§1) Eight weeks after transplantation, recipient mice were injected with MPTP to induce dopaminergic neurodegeneration. MPTP dissolved in saline was injected subcutaneously into MSP-GDNF and MSP-GFP mice as follows: 15 mg/kg free base MPTP on day 1, 25 mg/kg on day 2, and 30 mg/kg on days 3-7. Control mice were treated with saline following the same regimen. Nine weeks after the last injection of MPTP or saline, MSP-GFP mice were sacrificed to evaluate the differentiation of gene-modified macrophages into microglia and their recruitment to substantia nigra.

[3] = tested on: TH-positive cells in the SNpc; experiment: Continuous MPTP osmotic minipump infusion, TH-positive and GFP cells in SNpc; type: in vivo, mice; details: continuous infusion 5 mg MPTP/kg daily for 28 days
Description: FIGS. 7A-B. Plots of quantitative stereologic data illustrating TH-positive cells in the SNpc from mice that were continuously treated with saline (n=3) or 5 mg MPTP/kg daily (n=2) for 28 days (FIG. 7A). Semi-quantitative analysis of GFP-positive cells in the nigra of mice that were continuously treated with saline (n=3) or 5 mg MPTP/kg daily (n =2) for 28 days. Each bar represents the mean±standard error of the total number of GFP-positive cells per five representative sections of substantia nigra pars compacta per animal (FIG. 7B).
The minipumps were implanted subcutaneously on the upper back of the animal. The minipumps delivers saline or MPTP at a flow rate 0.35μ1/hr for 28 days. The concentration of MPTP solution was adjusted in such a way that the animals receive or 5 mg MPTP/kg daily for 28 days. On day 30 (after the start of MPTP or saline) the animals were killed and the brains were analyzed for the loss of TH-posive cells and the recruitment bone marrow derived GFP cells in the SNpc.

mice = experiment: Motor coordination tests in MPTP-only model; type: in vivo; details: MPTP-treated group vs saline-treated controls
From the text: MPTP/probenecid mouse model. […] In addition, spontaneous recovery of the nigrostriatal system that is typically observed with this regimen places limits on detection of changes in motor coordination. Mice were subjected to tests for motor coordination, including rotarod test, gait test/foot print analysis, pole test, beam walking test, and grid test.

[4] = tested on: TH-positive neurons in the SNpc; experiment: Stereology of TH-positive neurons in SNpc after MPTP; details: MPTP-alone regimen
Description: as §1
Three or nine weeks after the last MPTP or saline injection, recipient mice were sacrificed and the neuroprotective effect of macrophage-mediated GDNF delivery on the nigrostriatal dopaminergic system was assessed by quantitative analysis of TH-positive neurons in the substantia nigra pars compacta (SNpc), as well as the density of TH-positive terminals in the striatum. […] In addition, total number of Nissl-stained neurons in the SNpc was counted for each treatment group to make sure that GDNF treatment indeed prevented actual cell death (FIG. 8).

[5] = cited from earlier work

N[C@@H](Cc1ccc(O)c(O)c1)C(=O)O [L-DOPA]
locomotor deficits (MitoPark™ mice): transiently reversed

c1cc(CN2CCCNCCNCCCNCC2)ccc1CN1CCCNCCNCCCNCC1 [AMD3100]
effectiveness as conditioning regimen [1]: not to be sufficiently effective

CN1CC=C(c2ccccc2)CC1 [MPTP, 1-methyl-4-phenyl-1,2,3,6-tetrahydropyridine]
proportion of total microglia (Iba1-positive) in the nigra that were bone marrow derived [2]: 47%
increase in the number of bone marrow derived GFP cells in the SNpc [3]: four-fold
loss of TH-positive cells in the SNpc [3]: approximately 31%
motor coordination (rotarod, gait/foot print, pole, beam walking, grid test) (mice): None of these tests showed statistically significant differences
reduction in TH-positive cells [4]: approximately 50%

B1: glial cell line derived neurotrophic factor (protein, UniProt P39905 78-211, looked up)
Glial cell line-derived …: SPDKQMAVLPRRERNRQAAAANPENSRGKGRRGQRGKNRGCVLTAIHLNVTDLGLGYETKEELIFRYCSGSCDAAETTYDKILKNLSRNRRLVSDKVGQACCRPIAFDDDLSFLDDNLVYHILRKHSAKRCGCI
side effects ([5]; direct brain infusion): side effects, including allodynia and weight loss
cerebellar toxicity ([5]; high doses (100 μg/day) intraputamenal): significant cerebellar Purkinje cell death
